Test results: patent US20100069316A1, “TREATMENT FOR MULTIPLE MYELOMA” (Ares Trading S.A., priority 2006, published 2010)
Where two headings read alike, the source gives them in different places.

Legend:
[1] = tested on: XG7 myeloma cell line; assay: Cell proliferation assay (tritiated thymidine incorporation), XG7; type: cell-based, human; conditions: Homo sapiens, XG7, alone or with fixed Velcade/Melphalan
Protocol: (§1) Myeloma cells were harvested in the exponential growth phase (at day 3 after culture passage when the cell concentration is around 5×10^5 cells/ml). Cells were washed twice, cultured for 3 hours in RPMI1640 and 10% FCS, washed twice. This makes it possible to remove cell-bound growth factors (in particular recombinant IL-6). Then cells are plated in 96-well flat-bottomed microplates at various concentrations depending on their doubling time: • 5×10^3 cells/well in 100 μl for the cell lines: XG-1, XG-7 • 10^4 cells/well in […] for the cell lines: XG-2, XG-4, XG-6, XG-11, PRMI8226, L363 • 2×10^4 cells/well in 100 μl for the cell lines: XG-3, XG-12, XG-13, XG-14, XG-19, XG-20
(§2) The culture medium used were: • PRMI1640, 10% FCS and 0.5 ng/ml of IL-6 for XG-1, XG-2, XG-3, XG-4, XG-6, XG-7, XG-11, XG-12, XG-13, XG-19, XG-20 cells • X-VIVO20 and 0.5 ng/ml IL-6 for XG-14 cells • PRMI1640 and 10% FCS for RPMI8226 and L363 cells
(§3) The diluted compounds, DMSO or control culture medium were added in 100 μl at the start of the culture. Three culture wells were done for one compound dilution and the experiments were done twice (finally six culture wells for one compound dilution).
(§4) Cells were cultured for 4 days. Eight hours before the end of the culture, 0.5 μCi of tritiated thymidine were added in 50 μl of RPMI1640 and 10% FCS. Cells were then extracted with a cell collector and the thymidine incorporation was determined using a beta cell counter.
(§5) For each experiment, the mean tritiated thymidine incorporations (mean values determined on three culture wells) were plotted against the logarithmic concentrations of the compound. The curves were fitted with exponential regression, which was determined using the concentrations defining the inhibition response (usually 3-4 concentrations).
(§6) The concentrations yielding 50% and 90% inhibition of the proliferation of myeloma cells were determined with these regression curves.
(§7) The concentration yielding 10% (IC10) or 50% (IC50) inhibition of the myeloma cell lines were determined and the data are listed in Table 2.
(§8) Compound A was tested in combination with melphalan or Velcade. Increasing concentration of compound A (0, 0.01, 0.03, 0.12, 0.37, 1.1, 3.1, 10, 30 μM) were applied on 4 myeloma cell lines alone or in combination with Velcade or melphalan at concentration yielding around 10% or 50% inhibition.

[2] = tested on: XG-12 myeloma cell line; assay: Cell numeration, XG-12; type: cell-based, human; conditions: day 3 of culture
Protocol: (§9) Two myeloma cell lines (XG-3 and XG-12) that are sensitive to compound A (1-(4-{4-[4-(4-chlorophenyl)-pyrimidin-2-ylamino]-benzoyl}-piperazin-1-yl)-ethanone) were selected for the study. To assess the effect of compound A on myeloma cell survival, the percentage apoptotic cells was determined using binding of annexin V to apoptotic cells. The effect of compound A on the cell cycle was assessed by evaluating the percentage of cells in the S phase of the cell cycle by incorporation of BrdU-FITC. Apoptosis, cell cycle and cell numeration were evaluated daily on a four day culture period on the cell lines using the IC10, IC50 and I90 respective doses of compound A.

[3] = tested on: XG-12 myeloma cell line; assay: Detection of apoptosis (FITC-annexin V), XG-12; type: cell-based, human; conditions: day 3 of culture
Text: Apoptotic cells were detected using fluorescein isothiocyanate-labelled annexin V (FITC-annexin-V, Boehringer Mannheim). Annexin V has a high affinity for phosphatidylserine present on the outer cytoplasmic membrane of apoptotic cells. Cells were washed, labeled with FITC-annexin-V according to the manufacturer's recommendations and analyzed with a FACScan flow cytometer using Cell Quest software (Becton Dickinson, Moutain View, Calif., USA).
as §9

[4] = tested on: XG12 myeloma cell line; assay: Cell proliferation assay (tritiated thymidine incorporation), XG12; type: cell-based, human; conditions: Homo sapiens, XG12, alone or with fixed Velcade/Melphalan
Protocol: as §1, §2, §3, §4, §5, §6, §7, §8

[5] = tested on: 4 myeloma cell lines; assay: Combination study of compound A with Velcade or melphalan, proliferation; type: cell-based, human; conditions: XG3, XG12, XG7, L363
Protocol: as §1, §2, §3
Cells were cultured for 4 days. […] Cells were then extracted with a cell collector and the thymidine incorporation was determined using a beta cell counter. […]

[6] = tested on: XG3 myeloma cell line; assay: Cell proliferation assay (tritiated thymidine incorporation), XG3; type: cell-based, human; conditions: Homo sapiens, XG3, alone or with fixed Velcade/Melphalan
Protocol: as §1, §2, §3, §4, §5, §6, §7, §8

[7] = tested on: L363 myeloma cell line; assay: Cell proliferation assay (tritiated thymidine incorporation), L363; type: cell-based, human; conditions: alone or with fixed Velcade/Melphalan; for IC50: concentration of compound A yielding 50% inhibition of proliferation, read-out: IC50; for IC90: concentration of compound A yielding 90% inhibition of proliferation
Protocol: as §1, §2, §3, §4, §5, §6, §7, §8

[8] = tested on: 14 myeloma cell lines; assay: Cell proliferation assay (tritiated thymidine incorporation), panel of myeloma cell lines; type: cell-based; conditions: 14 human myeloma cell lines, 0.04-10 μM, 4 days culture
Protocol: Myeloma cell lines were passaged every 3-4 days in RPMI640 and 10% fetal calf serum (FCS). For the IL-6 dependent cell lines, 2 ng/ml of freshly thawed IL-6 (Abcys, France) was added at the beginning of the culture. Each cell line has unique phenotypic and HLA characteristics that make it possible to periodically check their identity.
The following cell lines were obtained in B. Klein's laboratory: XG-1, XG-2, XG-3, XG-4, XG-6, XG-7, XG-11, XG-12, XG-13, XG-14, XG-19, XG-20. (Zhang, et al., 1994; Rebouissou, et al., 1998)
RPMI8226 and L363 cell lines were purchased from ATCC.
Myeloma cells were harvested in the exponential growth phase (at day 3 after culture passage when the cell concentration is around 5×10^5 cells/ml). Cells were washed twice, cultured for 3 hours in RPMI1640 and 10% FCS, washed twice. This makes it possible to remove cell-bound growth factors (in particular recombinant IL-6). […]
Cells were cultured for 4 days. […] Cells were then extracted with a cell collector and the thymidine incorporation was determined using a beta cell counter.
as §5, with “concentrations). […]” for “concentrations).”

[9] = concentration of compound A yielding 50% inhibition of proliferation, read-out: IC50
[10] = concentration of compound A yielding 90% inhibition of proliferation
[11] = XG-12, compound A at IC50 concentration
[12] = XG-12, compound A at IC90 concentration

Question: What does the source list for `CC(=O)N1CCN(C(=O)c2ccc(Nc3nccc(-c4ccc(Cl)cc4)n3)cc2)CC1` [Compound A, 1-(4-{4-[4-(4-Chloro-phenyl)-pyrimidin-2-ylamino]-benzoyl}-piperazin-1-yl)-ethanone]?
Answer: IC50 [1, 9]: 6.36 µM; IC90 [1, 10]: 9.33 µM; Cells (×10^6/ml) cell counts [2, 11]: 0.35 ×10^6/ml; Cells (×10^6/ml) cell counts [2, 12]: 0.11 ×10^6/ml; Annexin V (%) percentage of apoptotic cells [3, 11]: 39.5%; Annexin V (%) percentage of apoptotic cells [3, 12]: 79.8%; IC50 [4, 9]: 0.974 µM; IC90 [4, 10]: 3.92 µM; effect of combination with Melphalan on inhibition of myeloma cell proliferation ([5]; Melphalan at IC10 or IC50): additive effect; effect of combination with Velcade on inhibition of myeloma cell proliferation ([5]; Velcade at IC10 or IC50): additive effect; IC50 [6, 9]: 1.49 µM; IC90 [6, 10]: 6.35 µM; IC50 ([7]; Homo sapiens, L-363, L363): 2.33 µM; IC90 ([7]; Homo sapiens, L-363, L363): 10.1 µM; IC50 ([7]; L363): 1.79 µM; IC90 ([7]; L363): 9.41 µM; inhibition of the proliferation of myeloma cell lines [8]: full inhibition of the proliferation of 13 out 14 human myeloma cells
